Source: US10253081B2, “Glucagon analogues” (Zealand Pharma A/S, priority 2012, dated 2019)
Like-named read-outs stand apart in the source and are kept apart here. *1 amine or outer side, *2 acyl side, *3 side chain or, on linkers, in order; H or OH if unused. Where a SMILES comes first, the peptide text is derived from it. Side-chain parts run from the residue outwards. [ ]: non-standard residue; d: D form. The star is where a group is joined. γGlu = O=C(O)[C@H](CCC(=O)[*:2])N[*:1]; Palmitoyl = CCCCCCCCCCCCCCCC(=O)*; Aib = CC(C)(N)C(=O)O

Columns and labels:
[1] = Oral glucose tolerance test (OGTT); assay type: in vivo, C57BL/6J mice; details: blood glucose AUC 0-120 min, 10 nmol/kg s.c. 4 h before oral glucose 2 g/kg
Protocol: Male C57BL/6J mice were fasted for 10 h before they received an oral glucose bolus of 2 g/kg body weight. Peptides were dissolved in saline buffered with 25 mM phosphate and administered at a dose of 10 nmol/kg body weight by subcutaneous injection 4 h before the glucose bolus. Control animals received a vehicle injection only. Group size was 7 animals per group. A pre-dose and a pre-glucose (0 min) blood sample were obtained by tail bleeding and blood glucose was measured with a glucometer. Additional samples of tail blood for measuring blood glucose were obtained 15 min, 30 min, 60 min, 90 min and 120 min after the glucose challenge. […] Calculation of AUC was done by the trapezoidal rule without baseline correction. The data are presented as mean±S.E.M. Statistical comparisons were conducted by one-way ANOVA followed by Tukey's post test. Vehicle alone was used as a control.

[2] = target: T1, human glucagon-like peptide 1 receptor (GLP-1R) (Homo sapiens, UniProt P43220); assay: GLP-1 receptor efficacy assay (cAMP AlphaScreen, CHO cells); assay type: cell-based; details: Table 1A
T1 construct: expressed in transfected cells
T1 sequence (P43220 24-463): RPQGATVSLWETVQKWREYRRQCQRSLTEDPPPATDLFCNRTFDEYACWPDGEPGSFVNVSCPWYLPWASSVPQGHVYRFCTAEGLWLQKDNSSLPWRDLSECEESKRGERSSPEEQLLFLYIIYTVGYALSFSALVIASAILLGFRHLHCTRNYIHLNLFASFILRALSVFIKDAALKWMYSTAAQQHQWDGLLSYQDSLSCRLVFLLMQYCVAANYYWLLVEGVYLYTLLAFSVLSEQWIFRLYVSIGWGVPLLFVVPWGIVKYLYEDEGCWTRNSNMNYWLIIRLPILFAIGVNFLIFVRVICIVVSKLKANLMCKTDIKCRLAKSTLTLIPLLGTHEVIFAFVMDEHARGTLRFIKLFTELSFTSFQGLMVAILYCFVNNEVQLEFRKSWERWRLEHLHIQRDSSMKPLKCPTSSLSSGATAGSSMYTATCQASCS
Outline: (§1)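 Stably transfected CHO clones expressing human GLP-1R or glucagon receptor were treated with increasing peptide concentrations for 15 min at room temperature in KRBH containing 0.1 mM IBMX. After lysis, cAMP was quantified by AlphaScreen; EC50 and efficacy relative to GLP-1 or glucagon reference came from curve fitting.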

[3] = target: T2, endogenous GLP-1 receptors (Mus musculus, UniProt O35659); assay: Agonistic activity on endogenous GLP-1 receptor (cAMP, murine insulinoma cell line); assay type: cell-based; details: intracellular cAMP, 15 minutes at 26° C.; read-out: EC50 GLP-1R (murine insulinoma cells)
T2 construct: Agonistic activity of the test compounds on endogenous GLP-1 receptors; endogenous in cells
T2 sequence (O35659 22-463): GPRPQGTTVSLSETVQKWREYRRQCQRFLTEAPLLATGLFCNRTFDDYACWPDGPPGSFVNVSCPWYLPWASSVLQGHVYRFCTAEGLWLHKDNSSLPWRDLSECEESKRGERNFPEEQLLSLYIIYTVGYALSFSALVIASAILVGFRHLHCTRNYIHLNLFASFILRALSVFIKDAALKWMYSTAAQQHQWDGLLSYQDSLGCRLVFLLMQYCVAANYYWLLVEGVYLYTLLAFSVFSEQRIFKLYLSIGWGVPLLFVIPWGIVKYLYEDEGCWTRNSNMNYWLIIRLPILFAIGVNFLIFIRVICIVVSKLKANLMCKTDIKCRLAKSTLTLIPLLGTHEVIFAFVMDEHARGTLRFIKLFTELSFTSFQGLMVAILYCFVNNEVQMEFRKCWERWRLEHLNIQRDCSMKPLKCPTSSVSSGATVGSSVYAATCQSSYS
Outline: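 Murine insulinoma cells were exposed 15 min at 26° C in KRBH with 0.1% DMSO to compound or GLP-1 ([…]), then cAMP was measured by AlphaScreen against a standard curve, in quadruplicate. pEC50 came from curve fits; % CTL was normalised to the maximal GLP-1 cAMP response.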

[4] = Pharmacokinetic parameters after subcutaneous and intravenous administration to mice; assay type: in vivo; details: male, mouse, plasma, 20 nmol/kg, C57Bl/6J mice; for half-life: read-out: Terminal half life (converted)
Protocol: Pharmacokinetic parameters of the test compounds were determined after subcutaneous and intravenous administration to C57Bl/6J mice.
8 week old male C57Bl/6J mice were obtained from Taconic (Denmark) weighing approximately 20-25 g at time of arrival at the test facility. The mice were caged in European standard cages type III with light cycle of 12-hour dark and 12-hour light (lights on 06.00). Both diet, Altromin 1324 (Altromin, Germany), and water was administered ad libitum during the whole experimental period. The 8-11 week animals were imported to the laboratory at least 7 days before the start up of the experimental procedure in order to assure proper acclimatization. After sampling the mice were euthanized by cervical dislocation.
The compounds were first dissolved in 0.096% aqueous ammonia to a nominal concentration of 2 mg/ml, and then diluted to the desired dosing strength (4 μM) in sterile PBS containing 25 mM phosphate buffer, pH 7.4. Subcutaneous and intravenous injections corresponding to 20 nmol/kg were given. The GLP-1-glucagon dual agonists were administered for subcutaneous dosing in the neck region and via a lateral tail vein for intravenous dosing.
Blood samples (250 μl) were collected from the periorbital plexus at time points 0.5, 2, 4, 6, 12, 16, 20, 24 h for subcutaneous and 10, 30 min, 3, 6, 12, 18, 24 h for intravenous administration into ice-chilled K3EDTA tubes and centrifuged for 5 minutes at 4° C. within 20 minutes of sampling. Plasma (>100 μl) was separated to ice-chilled Micronic tubes, immediately frozen, and kept at −70° C. until analysed for plasma concentration for the respective GLP-1-glucagon compound using LC-MS/MS. Individual plasma concentration-time profiles were analysed by a non-compartmental approach in WinNonLin v6.3 (Pharsight inc, Mountain View, Calif., USA), and the resulting pharmacokinetic parameters determined.

[5] = target: T3, human glucagon receptor (Glucagon-R) (Homo sapiens, UniProt P47871); assay: Glucagon receptor efficacy assay (cAMP AlphaScreen, CHO cells); assay type: cell-based; details: Table 1A; CHO cells expressing human Glucagon-R, cAMP; read-out: EC50 hGCGR CHO-K1
T3 construct: expressed in transfected cells
T3 sequence (P47871 26-477): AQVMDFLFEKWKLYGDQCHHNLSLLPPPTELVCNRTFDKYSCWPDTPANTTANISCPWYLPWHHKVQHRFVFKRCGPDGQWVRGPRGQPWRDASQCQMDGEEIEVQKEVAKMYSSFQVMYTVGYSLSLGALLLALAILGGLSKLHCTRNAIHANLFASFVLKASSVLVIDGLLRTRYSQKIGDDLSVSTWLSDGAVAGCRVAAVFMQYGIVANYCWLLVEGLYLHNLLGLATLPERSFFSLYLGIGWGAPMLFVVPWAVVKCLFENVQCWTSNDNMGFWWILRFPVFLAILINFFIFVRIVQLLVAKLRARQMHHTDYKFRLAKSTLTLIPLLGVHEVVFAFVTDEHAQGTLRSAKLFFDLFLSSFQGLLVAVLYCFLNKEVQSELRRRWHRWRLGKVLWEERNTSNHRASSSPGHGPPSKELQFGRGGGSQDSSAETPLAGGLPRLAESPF
Outline: as §1

For `CCCCCCCCCCCCCCCC(=O)N[C@@H](CCC(=O)NCCCC[C@H](NC(=O)[C@H](CCC(=O)O)NC(=O)[C@H](CC(=O)O)NC(=O)[C@H](CC(C)C)NC(=O)[C@H](Cc1ccc(O)cc1)NC(=O)[C@H](CCCCN)NC(=O)[C@H](CO)NC(=O)[C@H](Cc1ccc(O)cc1)NC(=O)[C@H](CC(=O)O)NC(=O)[C@H](CO)NC(=O)[C@@H](NC(=O)[C@H](Cc1ccccc1)NC(=O)[C@@H](NC(=O)CNC(=O)[C@H](CCC(N)=O)NC(=O)C(C)(C)NC(=O)[C@@H](N)Cc1c[nH]cn1)[C@@H](C)O)[C@@H](C)O)C(=O)N[C@@H](CCCNC(=N)N)C(=O)N[C@@H](C)C(=O)N[C@@H](CCCCN)C(=O)N[C@@H](CC(=O)O)C(=O)N[C@@H](Cc1ccccc1)C(=O)N[C@H](C(=O)N[C@@H](CCC(=O)O)C(=O)N[C@@H](Cc1c[nH]c2ccccc12)C(=O)N[C@@H](CC(C)C)C(=O)N[C@@H](CC(C)C)C(=O)N[C@@H](CO)C(=O)O)[C@@H](C)CC)C(=O)O` [Compound 11, H-H-Aib-QGTFTSDYSKYLDE-K(Hexadecanoyl-isoGlu)-RAKDFIEWLLS-OH] (H-H[Aib]QGTFTSDYSKYLDEK([γGlu-Palmitoyl])RAKDFIEWLLS-OH), the “AUC (% Ctrl)” value [1] was 61 % Ctrl, the EC50 ([2]; CHO cells expressing human GLP-1-R, cAMP, read-out: EC50 hGLP-1R CHO-K1) was 0.64 nM and the “Ratio GLP-1/Glucagon” value ([2]; EC50 [GLP-1R]/EC50 [Glucagon-R]) was 1.05. It also gave an EC50 [3] of 1.01 nM, a clearance ([4]; IV) of 0.157 mL/min/kg and a half-life ([4]; IV) of 3.9 h. The Tmax ([4]; SC) was 4 h, the bioavailability ([4]; SC) was 64% and the MRT ([4]; SC, read-out: Mean Residence Time) was 12.5 h. It also gave a half-life ([4]; SC) of 5 h and an EC50 [5] of 0.61 nM.
